Test results reported in patent US9855320B2, “Angiogenin for treatment of glaucoma” (CHUNG-ANG UNIVERSITY INDUSTRY-ACADEMIC COOPERATION …, priority 2011, dated 2018).

Key:
normal white rat = assay: Intraocular pressure change due to instillation in normal white rats (day-time and night-time); assay type: in vivo
Procedure: White rats were grouped as a physiological saline solution instillation group, an angiogenin (recombinant human angiogenin, R&D systems, USA) 50 μg/ml instillation group, an angiogenin fragment (angiogenin 108-122, SEQ ID NO: 1, BACHEM, USA) instillation group, and a latanoprost 50 μg/ml instillation group, and each group consisted of 6 rats, that is, 12 eyes. Instillation test was repeatedly performed on normal rats and glaucoma model rats. Ophthalmic agent was administered at 8 AM and 8 PM in an amount of 4 μl to compare day-time effects and night-time effects, and 1, 3, 6, 9, 12, and 24 hours after the instillation, intraocular pressure was measured.

angiogenin = assay: Angiogenin immunohistochemical staining of glaucoma rat model anterior chamber angle after instillation; assay type: in vivo; settings: episcleral venous ablation glaucoma model, 1 hour after instillation, compared to before angiogenin instillation
Procedure: Eyeballs donated for research purposes were pre-fixed in a 4% paraformaldehyde solution for 6 hours, and then, a tissue thereof was cut to be perpendicular to cornea, including cornea, limbus, and conjunctival, and the obtained tissue was fixed at room temperature for 6 hours. The fixed tissue was rapidly frozen and then a frozen tissue section was prepared and attached to slide glass. Thereafter, for immunohistochemical staining, the tissue section was washed with distilled water for 10 minutes and then, treated with 1% hydrogen peroxide solution for 20 minutes and then, washed three times with 0.02M phosphate buffer solution and treated with normal horse serum for 30 minutes. Then, primary antibody of angiogenin and Indoleamine 2,3-dioxygenase (IDO) were applied thereto for 48 hours, and then the result tissue were washed with PBS, and then, secondary antibody was applied thereto at room temperature for 1 hour. When immunohistochemical staining was completed, the tissue was sealed by poly-mount and identified by optical microscopy. […]

[1] = test system: chronic intraocular pressure increase rat model; assay: Intraocular pressure in chronic intraocular pressure increase rat model (episcleral venous electric ablation); assay type: in vivo
Procedure: (§1) 0.05 cc/50 g of Tiletimine and Zolazepam-mixed medicament (Zoletil) and Xylazine (Rompum) were mixed at a ratio of 1:1 and then administered to 20 rats by intramuscular injection, thereby anesthetizing the rats. A limbus periphery was divided into four portions, each of which was then subjected to 2 mm dissection at an interval of 90 degrees, and then, two radial conjunctival excisions were performed on upper dissection periphery. […] After surgical isolation of vein, the vein was lifted up by using 3 mm-width spatula to be spaced apart from the peripheral tissue, and then, was subjected to electric ablation while being careful for the peripheral tissue not to have any thermal damage or any mechanical damage due to contact. Intraocular pressure was consecutively measured three or more times by using Tonopen (Solan, Fla., USA), and only reliable intraocular pressure values within 5 percentile were recorded. 10 eyes of 10 rats were daily treated 4 times with angiogenin 10 μl 2 days before test, and even after espisderal venous electric ablation, 4 times a day at time intervals of 6 hours. The other 10 eyes of the rats, as a control, were consecutively treated in the same manner with physiological saline solution 10 μl before and after the ablation. Before the operation, and 3 days, and 1, 2, 4, and 8 weeks after the operation, intraocular pressure was measured, and the rats were sacrificed to extract eyes therefrom, which were then subjected to tissue examination and immunechemical staining with respect to Brn-3a and CD11b, and a reverse transcription polymerase chain reaction was used to measure CD11b value in retinal tissue.

retinal ganglion cell = assay: Retinal ganglion cell density on H-E staining, chronic intraocular pressure increase model; assay type: in vivo, rat; settings: 8 weeks after the injury
Procedure: as §1, with “10 eyes of 10 rats were daily treated 4 times with angiogenin 10 μl 2 days before test, and even after espisderal venous electric ablation, 4 times a day at time intervals of 6 hours. The other 10 eyes of the rats, as a control, were consecutively treated in the same manner with physiological saline solution 10 μl before and after the ablation.” left out, “tissue. […]” for “tissue.”

CD11b marked macrophage = assay: CD11b immunochemical staining of retina, chronic intraocular pressure increase model; assay type: in vivo, rat
Procedure: as §1, with “10 eyes of 10 rats were daily treated 4 times with angiogenin 10 μl 2 days before test, and even after espisderal venous electric ablation, 4 times a day at time intervals of 6 hours. The other 10 eyes of the rats, as a control, were consecutively treated in the same manner with physiological saline solution 10 μl before and after the ablation.” left out, “tissue. […]” for “tissue.”

[2] = test system: corneal chemical burn model; assay: Corneal chemical burn model: corneal opacity and corneal neoangiogenesis on anterior ocular segment images; assay type: in vivo, rat
Procedure: Regarding 20 eyes of 20 rats, filter paper was cut to a round shape having a diameter of 4 mm and completely wet with NaOH, and then, placed on corneal and conjunctiva with upper corneal limbus therebetween for 6 seconds, and then, the eyes were washed. 10 eyes of the 10 rats were treated with angiogenin 10 μl four times a day at time intervals of 6 hours two days before test, and even after the NaOH injury, treated 4 times a day. The remaining 10 eyes were treated with physiological saline two days before the injury in the same manner as used with angiogenin. Angiogenin and physiological saline were all administered only up to 7 days after injuring.
Three days, and 1, 2, 4, and 8 weeks after injuring, corneal opacity and neoangiogenesis level were assessed in consideration of images of anterior ocular segment, and on the third day and the seventh day, the respective conjunctiva damaged parts were collected and then subjected to a reverse transcription polymerase chain reaction to assay expression of IL-1a, TGF-β, SDF-1, and caspase-3.
On the corneal neoangiogenesis image, the region where blood vessel was grown was divided in the wedge shape at intervals of 1 hour while the corneal peak was used as a reference, and an area thereof was calculated, and the area was calculated according to this equation: A=C/12×3.1416 [r^2−(r−l)^2]. (A: new vessel area, C: time occupied when divided by 12 hours, r: corneal […], and l: vascular grown length)

[3] = from 2 weeks after the injury to 8 weeks

angiogenin: recombinant human angiogenin (R&D systems); 14.4 kDa single chain protein of 123 amino acids, a ribonuclease inducing angiogenesis
time after instillation up to which significant intraocular pressure reduction was maintained (normal white rat; day-time instillation): up to 9 hours
time after instillation at which average intraocular pressure began to significantly decrease (normal white rat; day-time instillation, 50 μg/ml): 1 h
intraocular pressure reduction compared to the pre-instillation intraocular pressure (normal white rat; day-time instillation, 50 μg/ml 4 μl, maintained up to 9 hours after the instillation): −1.8±0.4 mmHg
time after instillation up to which significant intraocular pressure reduction was maintained (normal white rat; night-time instillation): up to 24 hours
intraocular pressure reduction compared to that before instillation (normal white rat; night-time instillation, 50 μg/ml, maintained up to 24 hours after the instillation): −1.5±0.4 mmHg
intraocular pressure reduction (in words) (normal white rat; night-time instillation, 1 hour after the instillation): significant intraocular pressure reduction
angiogenin stain in anterior chamber angle / at trabecular meshwork (angiogenin): intensified
average intraocular pressure ([1]; 1 week after the treatment, control 27.8±4.1): 21.4±6.2 mmHg
average intraocular pressure ([1]; 2 weeks after the treatment, control 25±3.0): 20.8±4.0 mmHg
average intraocular pressure ([1]; 4 weeks after the treatment, control 25.6±1.6): 23.6±2.0 mmHg
average intraocular pressure ([1]; 8 weeks after the treatment, control 23.0±2.4): 21.7±3.4 mmHg
average intraocular pressure compared to the control (in words) ([1]; 3 days, and 1, 2, and 4 weeks after the episcleral venous injury): significantly lower
average intraocular pressure ([1]; before test, 10 eyes): 20.6±1.9 mmHg
average intraocular pressure ([1]; for 8 weeks (overall average), control 25.4±3.6): 21.2±3.8 mmHg
intraocular pressure difference to the control ([1]; third day after the treatment (biggest difference)): 6.75±0.3 mmHg
average intraocular pressure ([1]; three days after the treatment, control 27.3±2.9): 20.7±2.6 mmHg
density of retinal ganglion cell (retinal ganglion cell): does not change
distribution of CD11b marked macrophage in retinal ganglion layer (CD11b marked macrophage): highly frequently distributed
corneal opacity compared to the control [2, 3]: significantly low
corneal opacity grade (most of the group) [2, 3]: grade 1 or grade 2
corneal new vessel area ([2]; on the second week after injury): did not change
corneal opacity compared to the control ([2]; up to the seventh day after injury): no significant difference
